Measurements as given in patent US7199114B2, “Triterpene quaternary salts as biologically active surfactants” (The Regents of the University of Minnesota, priority 2002, dated 2007).
≈ marks a conversion by molar mass, not a printed value. Like-named read-outs stand apart in the source and are kept apart here. One block for each molecule: values may come before it.

What was measured:
[1] = test system: Staphylococcus aureus Methicillin-sensitive; assay: Anti-bacterial activity, broth culture MIC; format: cell-based; conditions: for MIC: read-out: Approximate Minimum Inhibitory Concentration, MIC
Method: (§1) Several uncharged or negatively charged triterpenes, and several positively charged triterpenes of the invention were tested for anti-bacterial activity against antibiotic-susceptible and antibiotic resistant strains of four types of bacteria of concern in clinics and hospitals. The triterpenes weres tested in broth culture in triplicate for ability to inhibit bacterial growth. The compounds tested are those listed below.
(§2) The lowest concentration which inhibits bacterial growth is referred to as the minimum inhibitory concentration (MIC), the standard measurement of anti-microbial activity.

[2] = test system: Enterococcus faecium Vancomycin-sensitive (second listed); assay: Anti-bacterial activity, broth culture MIC; format: cell-based; conditions: for MIC: read-out: Approximate Minimum Inhibitory Concentration, MIC
Method: as §1, §2

[3] = test system: Staphylococcus aureus Methicillin-resistant; assay: Anti-bacterial activity, broth culture MIC; format: cell-based; conditions: for MIC: read-out: Approximate Minimum Inhibitory Concentration, MIC
Method: as §1, §2

[4] = test system: Enterococcus faecium Vancomycin-sensitive (first listed); assay: Anti-bacterial activity, broth culture MIC; format: cell-based; conditions: for MIC: read-out: Approximate Minimum Inhibitory Concentration, MIC
Method: as §1, §2

[5] = test system: Eschericia coli Ampicillin-resistant; assay: Anti-bacterial activity, broth culture MIC; format: cell-based; conditions: read-out: Approximate Minimum Inhibitory Concentration, MIC
Method: as §1, §2

dollar spot [6] = assay: Antifungal treatment on turf grass plots (Example 84), dollar spot count; format: in vivo; conditions: Table 3 experiment, 17.8 g/1000 sq. ft. (Daconil Ultrex 3.2 oz./1000 sq. ft.)
Method: (§3) Plots of creeping bentgrass, cv. “Pennlinks,” were treated with water based sprays of the test compounds. Sprays were delivered by CO2-charged sprayer to deliver the equivalent of 2 gallons of spray per 1000 sq. ft of plot area. Plots were 15 sq. ft. each, and treatments were mixed to apply material to 75 sq. ft (5 replicates), although only 4 replicates were treated. The quaternary salts of triterpenes were applied at 17.8 g/1000 sq. ft. for 14 days. Daconil Ultrex® was applied at 3.2 oz./1000 sq. ft. for 14 days. The experiment used a randomized complete block design, with 4 replicates per treatment. Disease pressure was high. Pennlinks […] is moderately to highly susceptible to both dollar spot and brown patch. For brown patch, caused by Rhozoctonia sofani. a visual estimate of the percent of the plot area affected was recorded. Turf quality was estimated on a 1 to 9 scale, with 1 being worst and 9 being perfect. A rating of 6 is considered acceptable.

[7] = Antifungal treatment on turf grass plots (Example 84), turf quality; format: in vivo, creeping bentgrass, cv. Pennlinks; conditions: Table 3 experiment, 1 to 9 scale, 9 perfect, 17.8 g/1000 sq. ft. (Daconil Ultrex 3.2 oz./1000 sq. ft.)
Method: as §3

[8] = test system: brown patch, caused by Rhozoctonia sofani; assay: Antifungal treatment on turf grass plots (Example 84), brown patch; format: in vivo; conditions: Table 3 experiment, 17.8 g/1000 sq. ft. (Daconil Ultrex 3.2 oz./1000 sq. ft.)
Method: as §3

[9] = test system: Escherichia coli Ampicillin sensitive; assay: Anti-bacterial activity, broth culture MIC; format: cell-based; conditions: read-out: Approximate Minimum Inhibitory Concentration, MIC
Method: as §1, §2

[10] = test system: Pseudomonas aeruginosa Antibiotic sensitive; assay: Anti-bacterial activity, broth culture MIC; format: cell-based; conditions: read-out: Approximate Minimum Inhibitory Concentration, MIC
Method: as §1, §2

[11] = test system: Pseudomonas aeruginosa Multi-drug resistant; assay: Anti-bacterial activity, broth culture MIC; format: cell-based; conditions: read-out: Approximate Minimum Inhibitory Concentration, MIC
Method: as §1, §2

dollar spot [12] = assay: Bentgrass dollar spot trial at Rutgers University, lesion count; format: in vivo; conditions: text summary of Table 7
Method: Similar experiments were performed at Rutgers University to test for treatment of bentgrass infected with dollar spot. Test compounds were mixed in aqueous solution with the adjuvant Latron B-1956® (Rohm and Haas) and applied to the grass at a rate of 4.18 fluid ounces per 1000 square feet and an interval of every 7 days. The number of lesions per plot were then counted and averaged over the replicate plots. Treatment with fertilizers or other fungicides were also performed.

[13] = background statement; cited from earlier work
[14] = Staphylococcus aureus Methicillin-sensitive, broth culture, triplicate
[15] = Enterococcus faecium Vancomycin-sensitive (r13/r14), broth culture, triplicate
[16] = Staphylococcus aureus Methicillin-resistant, broth culture, triplicate
[17] = Enterococcus faecium Vancomycin-sensitive (r11/r12), broth culture, triplicate

melting point: 245 to 247 °C (dec.)
Structure (SMILES): C=C(C)[C@@H]1CCC2(COC(=O)C[n+]3cccc(CNC(N)=O)c3)CC[C@]3(C)C(CCC4[C@@]5(C)CC[C@H](OC(=O)C[n+]6cccc(CNC(N)=O)c6)C(C)(C)C5CC[C@]43C)C12.Cl.Cl (stereo partly drawn)

Structure (SMILES): C=C(C)[C@@H]1CC[C@]2(CO)CC[C@]3(C)C(CCC4[C@@]5(C)CC[C@H](OC(=O)C[N+]67CCN(CC6)CC7)C(C)(C)C5CC[C@]43C)C12.[Cl-] (stereo partly drawn) [Compound 6]
MIC [1, 14]: 2 µg/mL
MIC [2, 15]: 10 µg/mL
MIC [3, 16]: 2 µg/mL
MIC [4, 17]: 5 µg/mL

Structure (SMILES): Br.C=C(C[n+]1ccc(N(C)C)cc1)[C@@H]1CC[C@]2(COC(C)=O)CC[C@]3(C)C(CCC4[C@@]5(C)CC[C@H](OC(C)=O)C(C)(C)C5CC[C@]43C)C12 (stereo partly drawn) [Compound 12, 1-(3,28-(diacetoxy)lup-20(29)-ene-30-yl)4-(dimethylamino)pyridinium bromide]
MIC ([1]; Staphylococcus aureus): 2 µg/mL
MIC ([2]; Enterococcus faecium): 2 µg/mL
MIC ([3]; Staphylococcus aureus): 5 µg/mL
MIC ([4]; Enterococcus faecium): 2 µg/mL
MIC [5]: 50 µg/mL

Structure (SMILES): C=C(C[N+]12CCN(CC1)CC2)[C@@H]1CC[C@]2(COC(C)=O)CC[C@]3(C)C(CCC4[C@@]5(C)CC[C@H](OC(C)=O)C(C)(C)C5CC[C@]43C)C12.[Br-] (stereo partly drawn) [Compound 18, 1-[3,28-(diacetoxy)lup-20(29)-ene-30-yl]-1,4-diazabicyclo[2.2.2]octane bromide]
MIC ([1]; Staphylococcus aureus): 5 µg/mL
MIC ([2]; Enterococcus faecium): 5 µg/mL
MIC ([3]; Staphylococcus aureus): 5 µg/mL
MIC ([4]; Enterococcus faecium): 5 µg/mL
Dollar Spot # of spots per plot (dollar spot [6]; Jul. 2, 2001): 20.8 spots per plot
Dollar Spot # of spots per plot (dollar spot [6]; Jul. 9, 2001): 14.3 spots per plot
Dollar Spot # of spots per plot (dollar spot [6]; Jul. 16, 2001): 1.8 spots per plot
Dollar Spot # of spots per plot (dollar spot [6]; Jun. 25, 2001): 16.8 spots per plot
Turf quality ([7]; Jul. 2, 2001): 4.63
Turf quality ([7]; Jul. 9, 2001): 5.50
Turf quality ([7]; Jun. 25, 2001): 4.63
Brown Patch % of plot infected ([8]; Jul. 2, 2001): 37.5%
Brown Patch % of plot infected ([8]; Jul. 9, 2001): significantly suppress brown patch
Brown Patch % of plot infected ([8]; Jul. 9, 2001, listed as Comp. 18): 12.0%
Brown Patch % of plot infected ([8]; Jul. 16, 2001): 6.3%
Brown Patch % of plot infected ([8]; Jun. 25, 2001): 14.8%

Structure (SMILES): Br.Br.C=C(C)[C@@H]1CC[C@]2(COC(=O)CCC[N+]34CCN(CC3)CC4)CC[C@]3(C)C(CCC4[C@@]5(C)CC[C@H](OC(=O)CCC[N+]67CCN(CC6)CC7)C(C)(C)C5CC[C@]43C)C12 (stereo partly drawn) [Compound 25, Lup-20(29)-ene-3,28-bis[(N-(1,4-diazabicyclo[2.2.21]octyl)4-butyrate)]dibromide]
MIC ([1]; Staphylococcus aureus): 2 µg/mL
MIC ([2]; Enterococcus faecium): 10 µg/mL
MIC ([3]; Staphylococcus aureus): 2 µg/mL
MIC ([4]; Enterococcus faecium): 5 µg/mL
MIC [5]: 100 µg/mL
MIC [9]: 50 µg/mL

Structure (SMILES): Br.C=C(C)[C@@H]1CC[C@]2(COC(=O)CCC[n+]3ccc(N(C)C)cc3)CC[C@]3(C)C(CCC4[C@@]5(C)CC[C@H](OC(=O)CCC[n+]6ccc(N(C)C)cc6)C(C)(C)C5CC[C@]43C)C12 (stereo partly drawn) [Compound 40, Lup-20(29)-ene3,28-bis [N-(4-dimethylaminopyridinium)4-butyrate] dibromide]
MIC ([1]; Staphylococcus aureus): 5 µg/mL
MIC ([2]; Enterococcus faecium): 5 µg/mL
MIC ([3]; Staphylococcus aureus): 5 µg/mL
MIC [10]: 200 µg/mL
MIC ([4]; Enterococcus faecium): 2 µg/mL
MIC [5]: 50 µg/mL
MIC [11]: 200 µg/mL
MIC [9]: 20 µg/mL

Structure (SMILES): CCCCCCCCCC[N+](C)(CCCCCCCCCC)CC(=O)O[C@H]1CC[C@@]2(C)C(CC[C@]3(C)C2CC[C@@H]2C4[C@H]5OC[C@@]4(CCC5(C)C)CC[C@]23C)C1(C)C.[Cl-] (stereo partly drawn) [Compound 80, 3β-[(N-methyl-N,N-didecyl)aminoacetyloxy]-19β,28-epoxy-18α-oleanan chloride]
effectiveness against dollar spot (dollar spot [12]): particularly effective

Structure (SMILES): C=C(C)[C@@H]1CC[C@]2(C)CC[C@]3(C)[C@H](CC[C@@H]4[C@@]5(C)C=C(O)C(=O)C(C)(C)[C@@H]5CC[C@]43C)[C@@H]12 [Compound 85, lupeneno-1-ene-2-ol, reference compound]
MIC [1, 14]: 50 µg/mL (≈ 114 µM)
MIC [2, 15]: 50 µg/mL (≈ 114 µM)
MIC [3, 16]: 100 µg/mL (≈ 228 µM)
MIC [4, 17]: 20 µg/mL (≈ 45.6 µM)

Structure (SMILES): C=C(C)C1CCC2(C)CCC3(C)C(CCC4C5(C)CCC(OC(=O)C=CC(=O)O)C(C)(C)C5CCC43C)C12 (stereo not drawn) [Compound 86, lupeol-3-maleate, reference compound]
Approximate Minimum Inhibitory Concentration, MIC [2, 15]: 50 µg/mL
Approximate Minimum Inhibitory Concentration, MIC [4, 17]: 10 µg/mL
Approximate Minimum Inhibitory Concentration, MIC ([4]; Enterococcus faecium Vancomycin-sensitive (r11/r12), broth culture, triplicate, listed as lupeol-3-maleate): ≤ 10 µg/mL

Structure (SMILES): C=C(C)[C@@H]1CC[C@]2(COC(=O)/C=C\C(=O)O)CC[C@]3(C)[C@H](CC[C@@H]4[C@@]5(C)CC[C@H](OC(=O)/C=C\C(=O)O)C(C)(C)[C@@H]5CC[C@]43C)[C@@H]12 [Compound 93, betulin-3,28-dimaleate, reference compound]
Approximate Minimum Inhibitory Concentration, MIC [1, 14]: 200 µg/mL
Approximate Minimum Inhibitory Concentration, MIC [3, 16]: 200 µg/mL

Structure (SMILES): C=C(C)[C@@H]1CC[C@]2(COC(=O)/C=C\C(=O)O)CC[C@]3(C)[C@H](CC[C@@H]4[C@@]5(C)CC[C@H](O)C(C)(C)[C@@H]5CC[C@]43C)[C@@H]12 [Compound 94, betulin-28-maleate, reference compound]
Approximate Minimum Inhibitory Concentration, MIC [1, 14]: 50 µg/mL
Approximate Minimum Inhibitory Concentration, MIC [2, 15]: 200 µg/mL
Approximate Minimum Inhibitory Concentration, MIC [4, 17]: 200 µg/mL

Structure (SMILES): C=C(C)[C@@H]1CC[C@]2(CO)CC[C@]3(C)[C@H](CC[C@@H]4[C@@]5(C)CC[C@H](O)C(C)(C)[C@@H]5CC[C@]43C)[C@@H]12 [betulin]
solubility in water [13]: about 0.15 mg/l
